According to ChEMBL document CHEMBL1955786, “New antitumor compounds from Carya cathayensis” (Bioorg Med Chem Lett, 2012):
Active and inactive are the calls of the source. The rule behind the calls is not given here.

Experiments:
Format in all cases: functional, cell-based
[1] = system: HT-29; assay: Cytotoxicity against human HT-29 cells at 10 to 100 uM after 48 hrs by MTT assay
[2] = system: HCT-116; assay: Cytotoxicity against human HCT116 cells at 10 to 100 uM after 48 hrs by MTT assay
[3] = system: MCF7; assay: Cytotoxicity against human MCF7 cells at 10 to 100 uM after 48 hrs by MTT assay
[4] = system: A549; assay: Cytotoxicity against human A549 cells at 10 to 100 uM after 48 hrs by MTT assay
[5] = system: HT-29; assay: Cytotoxicity against human HT-29 cells after 48 hrs by MTT assay
[6] = system: A549; assay: Cytotoxicity against human A549 cells after 48 hrs by MTT assay
[7] = system: MCF7; assay: Cytotoxicity against human MCF7 cells after 48 hrs by MTT assay

Row | Compound | Activity [1] | Activity [2] | Activity [3] | Activity [4] | Activity [5] | Activity [6] | Activity [7]
1 | COc1cc(C(=O)C(CO)c2ccc(O)c(OC)c2)ccc1O (centres undefined) | Active | Active | Active | Active | – | – | –
2 | O=C/C=C\c1ccc(O)cc1 | Active | Active | Active | Active | – | – | –
3 | COc1cc([C@@H]2Oc3c(OC)cc(/C=C/C=O)cc3[C@H]2CO)ccc1O | Active | Active | Active | Active | Dose-dependent effect | Dose-dependent effect | Dose-dependent effect
4 | O=Cc1ccc(O)cc1 | Active | Active | Active | Active | – | – | –
5 | COc1cc([C@H]2Oc3c(OC)cc(/C=C/C=O)cc3[C@@H]2CO)ccc1O | Active | Active | Active | Active | Dose-dependent effect | Dose-dependent effect | Dose-dependent effect
6 | OC[C@@H]1[C@@H](Cc2ccc(O)cc2)CO[C@H]1c1ccc(O)cc1 | Active | inactive | Active | Active | Dose-dependent effect | Dose-dependent effect | Dose-dependent effect
7 | COc1cc(O)cc(C=O)c1 | Active | Active | Active | Active | – | – | –
8 | COc1cc(/C=C\C=O)ccc1O | Active | Active | Active | Active | Dose-dependent effect | Dose-dependent effect | Dose-dependent effect
